Target: human RIP1 kinase domain (2-375) (Homo sapiens (Human), UniProt Q13546)
Assay: RIP1 kinase inhibition biochemical assay (Transcreener ADP, fluorescence polarization)
Conditions: apparent Ki (Morrison tight-binding fit); 50 nM enzyme, 50 μM ATP, 2 hours incubation
Procedure: RIP1 Kinase Inhibition Assays (Biochemical Assay)
The compounds of the present invention were tested for their capacity to inhibit RIP1K activity as described below.
The ability of the receptor interacting protein kinase (RIPK1) to catalyze the hydrolysis of adenosine-5′-triphosphate (ATP) is monitored using the Transcreener ADP (adenosine-5′-diphosphate) assay (BellBrook Labs). Purified human RIP1 kinase domain (2-375) (50 nM) derived from a baculovirus-infected insect cell expression system is incubated with test compounds for 2 hours in 50 mM Hepes buffer (pH 7.5) containing 30 mM MgCl2, 1 mM dithiothreitol, 50 μM ATP, 0.002% Brij-35, and 0.5% dimethyl sulfoxide (DMSO). Reactions are quenched by the addition of 1× Bell Brooks Stop buffer B (20 mM Hepes (ph7.5), 40 mM ethylenediaminetetraacetic acid and 0.02% Brij-35) containing an additional 12 mM EDTA and 55 ug/mL ADP2 antibody and 4 nM ADP-AlexaFluor® 633 tracer. The tracer bound to the antibody is displaced by the ADP generated during the RIP1K reaction, which causes a decrease in fluorescence polarization that is measured by laser excitation at 633 nm with a FP microplate reader M1000. Fractional activity was plotted against test article concentration. Using Genedata Screener software (Genedata; Basel, Switzerland), the data were fit to the tight-binding apparent inhibition constant (Ki^app) Morrison equation [Williams, J. W. and Morrison, J. F. (1979) The kinetics of reversible tight-binding inhibition. Methods Enzymol 63: 437-67]. The following equation was used to calculate fractional activity and Ki^app:
[formula] where [E]T and [I]T are the total concentrations of active enzyme and test article, respectively.
Exemplary compounds of the present invention are provided in Table 1 along with their physiochemical characterization and in vitro RIP1 kinase inhibitory activity data. “Method” in the first column of each table refers to the synthetic method(s) used to prepare each compound as shown in the Examples above.

human RIP1 kinase domain (2-375), sequence (Q13546 2-375): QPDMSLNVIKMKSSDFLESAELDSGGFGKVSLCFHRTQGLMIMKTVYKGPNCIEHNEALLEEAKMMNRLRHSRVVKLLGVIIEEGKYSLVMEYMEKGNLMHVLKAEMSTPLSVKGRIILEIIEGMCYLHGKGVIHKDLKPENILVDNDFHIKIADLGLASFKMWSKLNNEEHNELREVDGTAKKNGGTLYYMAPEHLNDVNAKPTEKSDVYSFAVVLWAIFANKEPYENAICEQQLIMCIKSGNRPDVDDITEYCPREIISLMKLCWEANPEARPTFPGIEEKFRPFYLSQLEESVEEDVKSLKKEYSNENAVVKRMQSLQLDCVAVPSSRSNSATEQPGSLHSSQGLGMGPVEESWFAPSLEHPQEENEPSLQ

Compound	Ki
N#Cc1cccc([C@@H]2C[C@H](F)c3nc(C(=O)C4CC4)nn32)c1 (single isomer, unassigned) [Example 8]	0.028 µM
CC1(C)OCC2CC21C(=O)c1nc2n(n1)[C@H](c1ccccc1)C[C@@H]2F (mixture of isomers) [Example 3, (2,2-dimethyl-3-oxabicyclo[3.1.0]hexan-1-yl)-[rac-(5S,7S)-7-fluoro-5-phenyl-6,7-dihydro-5H-pyrrolo[1,2-b][1,2,4]triazol-2-yl]methanone]	0.084 µM
CC(=O)N1CC(C(=O)c2nc3n(n2)[C@H](c2ccccc2)C[C@@H]3F)C1 (single isomer, unassigned) [Example 7]	0.13 µM
O=C(c1nc2n(n1)[C@H](c1cccc(Cl)c1)C[C@@H]2F)C1CC1 (single isomer, unassigned) [Example 9]	0.0065 µM
CC(C)(CO)C(=O)c1nc2n(n1)[C@H](c1ccccc1)C[C@@H]2F [Example 4, 3-hydroxy-2,2-dimethyl-1-((5S,7S)-7-fluoro-5-phenyl-6,7-dihydro-5H-pyrrolo[1,2-b][1,2,4]triazol-2-yl)propan-1-one]	0.031 µM
CC(C)(COC(F)F)C(=O)c1nc2n(n1)[C@H](c1ccccc1)C[C@@H]2F [Example 5, 3-(difluoromethoxy)-2,2-dimethyl-1-((5S,7S)-7-fluoro-5-phenyl-6,7-dihydro-5H-pyrrolo[1,2-b][1,2,4]triazol-2-yl)propan-1-one]	< 0.005 µM

More lines, now with the values ahead:

Ki	Compound
0.009 µM	O=C(c1nc2n(n1)[C@H](c1cncc(F)c1)C[C@@H]2F)C1CC1 (single isomer, unassigned) [Example 1]
> 10 µM	O=C(c1nc2n(n1)[C@@H](c1cncc(F)c1)C[C@H]2F)C1CC1 (single isomer, unassigned) [Example 2]
0.025 µM	CCC(=O)c1nc2n(n1)[C@H](c1cnn(C)c1)C[C@@H]2F (single isomer, unassigned) [Example 6]

— US12344612B2, “Bicyclic ketone compounds and methods of use thereof” (Genentech, Inc., priority 2019, dated 2025)
